According to US4365063A, “Antihypertensive agents” (American Home Products Corporation, priority 1981, dated 1982):

Key:
rabbit aortic strips = test: Ca+2 antagonism: relaxation of potassium-contracted rabbit aortic strips; format: cell-based; conditions: Oryctolagus cuniculus, strips contracted with 100 millimoles potassium ion, read-out: percent relaxation (P.R.); for inhibition at 10 µM: 10^-5 M bath concentration; for inhibition at 1 µM: 10^-6 M bath concentration
Experimental: After a stable active tension has developed in the strip, as measured by Statham UC-2 force transducers and recorded on an eight channel Beckman Dynograph Polygraphic Recorder, an amount of the antagonist was added to the organ bath to make a 10^-5 molar concentration of antagonist. The depressant effect, expressed as percent relaxation, was taken from the mean of at least two experiments. […] A Ca^+2 antagonist producing a 20 percent relaxation of aortic tissue in this test procedure at a 10^-5 molar bath concentration of the antagonist, generally produced a significant reduction in blood pressure when a sufficient amount is given to the spontaneously hypertensive rat.
(§1) The following examples illustrate the preparation of a representative number of compounds of this invention. After each example, the Ca^+2 antagonist activity of the compound is presented in terms of percent relaxation (P.R.) at the stated concentration. Similarly, the antihypertensive activity is reported in terms of millimeters mercury (mmHg) blood pressure (B.P.) reduction at the stated time post oral dosing with the reported amount of compound.

[1] = tested on: spontaneously hypertensive rats; test: Systolic blood pressure lowering in spontaneously hypertensive rats; format: in vivo, rat
Experimental: The in vivo blood pressure lowering ability of the compounds of this invention was established by measuring the systolic pressure of spontaneously hypertensive rats with a Decker Caudal Plethysmograph or similar sensor device. The compound being tested is administered to groups of four rats and their blood pressure is read prior to compound administration and at 1.5 and 4 hours after compound administration. Depending upon the behavior of the compound being tested, the schedule of blood pressure readings and route of administration is modified. Initially the compounds are administered orally but where compound solubility is a factor, the compounds may be administered parenterally (i.e. i.p., i.m., s.c., i.v., etc.) as desired. The compounds of this invention were initially administered orally at a standard testing dose of 50 mg/kg., and where appropriate, smaller doses were administered to obtain a potency profile.
as §1

Structure (SMILES)	inhibition at 10 µM (rabbit aortic strips)	blood pressure (B.P.) reduction ([1]; 5 mg/kg oral, at 1.5 hours)	blood pressure (B.P.) reduction ([1]; 5 mg/kg oral, at 4 hours)	blood pressure (B.P.) reduction ([1]; 10 mg/kg oral, at 1.5 hours)	blood pressure (B.P.) reduction ([1]; 10 mg/kg oral, at 4 hours)	blood pressure (B.P.) reduction ([1]; 25 mg/kg oral, at 1.5 hours)	blood pressure (B.P.) reduction ([1]; 25 mg/kg oral, at 4 hours)	blood pressure (B.P.) reduction ([1]; 50 mg/kg oral, at 1.5 hours)	blood pressure (B.P.) reduction ([1]; 50 mg/kg oral, at 4 hours)	inhibition at 1 µM (rabbit aortic strips)	blood pressure (B.P.) reduction ([1]; 2.5 mg/kg oral, at 1.5 hours)	blood pressure (B.P.) reduction ([1]; 2.5 mg/kg oral, at 4 hours)
COC(=O)C1=C(C)NC2=C(C(=O)CN(C)C2)C1c1c(F)c(F)c(F)c(F)c1F (centres unmarked) [Example 1, 1,4,5,6,7,8-Hexahydro-2,7-dimethyl-4-[2,3,4,5,6-pentafluorophenyl]-5-oxo-1,7-naphthyridine-3-carboxylic Acid Methyl Ester]	22.9%	-21 mmHg	-10 mmHg	-63 mmHg	-31 mmHg	-71 mmHg	-49 mmHg	-95 mmHg	-89 mmHg	–	–	–
COC(=O)C1=C(C)NC2=C(C(=O)CN(Cc3ccccc3)C2)C1c1c(F)c(F)c(F)c(F)c1F (centres unmarked) [Example 2, 1,4,5,6,7,8-Hexahydro-2-methyl-5-oxo-4-(2,3,4,5,6-pentafluorophenyl)-7-(phenylmethyl)-1,7-naphthyridine-3-carboxylic Acid Methyl Ester]	–	–	–	–	–	–	–	-20 mmHg	-23 mmHg	56%	–	–
COC(=O)C1=C(C)NC2=C(C(=O)CNC2)C1c1c(F)c(F)c(F)c(F)c1F (centres unmarked) [Example 3, 1,4,5,6,7,8-Hexahydro-2-methyl-5-oxo-4-(2,3,4,5,6-pentafluorophenyl)-1,7-naphthyridine-3-carboxylic Acid Methyl Ester]	78.7%	-48 mmHg	-36 mmHg	-79 mmHg	-24 mmHg	-76 mmHg	–	-64 mmHg	-88 mmHg	65.2%	-34 mmHg	-30 mmHg
